This passage reports residual activity results from ChEMBL document CHEMBL1141108, “Alkyl-substituted polyaminohydroxamic acids: a novel class of targeted histone deacetylase inhibitors” (J Med Chem, 2005).

The target in the experiment is Histone deacetylase. Kind of experiment: In vitro residual activity against Histone deacetylase (HDAC) at 1 uM concentration.
Consider `Br.CC(C)(C)c1ccc(CNCCCCNCCCNC(=O)CCCCCCC(=O)NO)cc1`, for which the residual activity is 50.6%. The molecule `O=C(CCCCC(=O)NCCCCNCc1ccccc1-c1ccccc1)NO` gave a residual activity of 83.7%.

With `Cc1ccc(CNCCCCNC(=O)CCCCC(=O)NO)cc1`, the residual activity came out at 55.8%.

On to `CN(C)c1ccc(CNCCCCNC(=O)CCCCCCC(=O)NO)cc1.O=C(O)C(F)(F)F`, for which the residual activity amounted to 66.1%. As to `O=C(CCCCC(=O)NCCCCN(Cc1ccccc1-c1ccccc1)Cc1ccccc1-c1ccccc1)NO`, the residual activity is 96.3%. Take `CN(C)c1ccc(CN(CCCCN)C(=O)CCCCCCC(=O)NO)cc1.O=C(O)C(F)(F)F`: the residual activity was 84.4%. To `CN(C)c1ccc(CNCCCCNC(=O)CCCCC(=O)NO)cc1.O=C(O)C(F)(F)F` belongs 89.7%. With `Cc1ccc(CNCCCCNC(=O)CCCCCCC(=O)NO)cc1.O=C(O)C(F)(F)F`, the residual activity was found to be 46.8%. `Br.O=C(CCCCC(=O)NCCCNCCCNCCCNCCCNCC1CCCCCC1)NO` gave a residual activity of 59%. `Br.O=C(CCCCCCC(=O)NCCCNCCCCNCCC(c1ccccc1)c1ccccc1)NO` displayed a residual activity of 26.1%. `Br.O=C(CCCCC(=O)NCCCNCCCCNCCC(c1ccccc1)c1ccccc1)NO` showed a residual activity of 80.2%. For `Br.CN(C)c1ccc(CN(CCCNCCCCN)C(=O)CCCCC(=O)NO)cc1`, the residual activity turned out to be 40%. For the molecule `Br.CC(C)(C)c1ccc(CNCCCCNCCCNC(=O)CCCCC(=O)O)cc1`, the residual activity amounted to 98.5%.

In turn, `Br.CC(C)(C)c1ccc(CNCCCCNCCCNC(=O)CCCCC(=O)NO)cc1` gave a residual activity of 25.1%.

What is called residual activity is the share of the control activity or signal that is left under treatment.
